# Assay results published in patent US11396499B2, “Lysosomal acid lipase assay” (University of Washington, priority 2018, dated 2022).
# Values joined by “and” are separate entries in the source; they are usually repeats but may differ in a detail not shown here. Identical values can stand only once.
# What was measured:
# [1] = system: lysosomal acid lipase (LAL); assay: UPLC-MS/MS LAL assay in dried blood spots (DBS) with substrate P-PMHC; format: biochemical, human
# Description: Assay mixture was prepared by combining 9 volumes of 0.1 mol/L sodium acetate buffer (made by adding reagent grade NaOH to 0.1 mol/L reagent-grade acetic acid in water), pH 4.5, containing 2.5 mmol/L sodium taurodeoxycholate hydrate (Sigma, 287245) with 1 volume of 0.5% (w/v) bovine heart cardiolipin in ethanol (Sigma, C1649) containing 3 mmol/L substrate palmitoyl 4-propyl-8-methyl-7-hydroxycoumarin (P-PMHC) and 50 μmol/L carbon-13-labeled 4-propyl-8-methyl-7-hydroxycoumarin (internal standard). The latter was prepared by mixing solid substrate P-PMHC with internal standard solution in absolute ethanol, removing solvent in a centrifugal concentrator under vacuum (or with a jet of nitrogen), and then mixing with commercial cardiolipin/ethanol solution. This ethanol stock could be stored at −20° C. for several months (avoid>2-3 freeze-thaw cycles), and the aqueous buffer could be stored at 4° C. for several months. This was based on no change in assay results when new and stored solutions were used. Assay mixture was made fresh before each use.
# To a 3-mm punch from a DBS in a 1.5-mL polypropylene Eppendorf tube was added 200 μL of purified water (Milli-Q, EMD Millipore). The tubes were shaken on an orbital platform shaker for 1 h at ambient temperature. The tube of DBS extract was mixed briefly on a vortex-type mixer, and a 10 μL aliquot was added to the well of a polypropylene, deep-well, 96-well plate (Costar, 3959). Assay mixture (30 μL, ambient temperature) was added to each well. The plate was centrifuged at 3000 g for 5 min at ambient temperature to ensure that all liquid was at the well bottom. The plate was sealed with a film cover (Advantage 96-well round clear Silicone/PTFE cap mat 962611). The plate was shaken at 37° C. in an incubator with orbital mixing at 400 rpm for 3 h. The reactions were quenched by addition of 80 μL of purified water (Milli-Q, EMD Millipore) followed by 400 μL of HPLC-grade ethyl acetate. The well contents were mixed by pipetting up and down approximately 10 times. The plate was centrifuged at 3000 g for 5 min at ambient temperature, and then 120 μL of the upper ethyl acetate layer was transferred to a shallow-well, 96-well polypropylene plate (Greigner, 651201). Solvent was removed at ambient temperature with a jet of nitrogen. To each well was added 200 μL of water/methanol (1:1, Fisher Optima Grade), and samples were mixed by pipetting up and down a few times. The plate was wrapped with aluminum foil and placed in the autosampler chamber at 8° C. in preparation for LC-MS/MS analysis.
# Liquid chromatography was carried out using a Waters Acquity binary solvent pump system with a CSH, C18, 1.7-μm, 2.1×50-mm column (Waters, 186005296) and a CSH, C18, 1.7-μm guard column (Vanguard, 186005303). The solvent program was 99% A (70:30, water/acetonitrile, 0.1% formic acid, Fisher Optima grade)/1% B (50:50, acetonitrile/isopropanol, 0.1% formic acid) to 30% A/70% B over 1 min, then jump to 100% B and hold for 0.5 min, then to 99% A over 0.5 min (flow rate 0.8 mL/min). The total run time was 2.5 min. Mass spectrometry was carried out with a Waters Xevo TQ tandem-quadrupole instrument.
# [2] = biological target: T1, lysosomal acid lipase (LAL) (Homo sapiens, UniProt P38571); assay: Previous fluorometric LAL assay (Hamilton et al.) with palmitoyl-4MU with and without Lalistat-2 in DBS; format: biochemical
# T1 construct: from tissue; host or cells: dried blood spots (DBS) from healthy adults, healthy children and LAL-deficient patients
# T1 sequence (P38571 77-399): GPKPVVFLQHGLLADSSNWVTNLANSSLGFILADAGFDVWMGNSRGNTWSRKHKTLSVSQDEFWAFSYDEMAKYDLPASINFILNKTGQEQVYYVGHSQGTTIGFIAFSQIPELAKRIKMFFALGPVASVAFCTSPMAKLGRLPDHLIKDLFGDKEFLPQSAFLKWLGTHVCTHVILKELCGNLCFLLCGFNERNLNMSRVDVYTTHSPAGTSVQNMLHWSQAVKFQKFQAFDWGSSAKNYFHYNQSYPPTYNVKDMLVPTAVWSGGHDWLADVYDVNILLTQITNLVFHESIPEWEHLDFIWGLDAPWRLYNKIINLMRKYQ
# Excerpt: LAL is detected in leukocytes or fibroblasts using radiometric, immunologic, or fluorescence assays (The metabolic and molecular bases of inherited disease. 8th Ed. New York (NY): McGraw-Hill; 2001. p. 3827-3387). Hamilton and colleagues recently developed a fluorometric assay to detect LAL in dried blood spots (DBS) (Hamilton et al., Clin Chim Acta 2012; 413:1207-10). The assay is based on the release of 4-methylumbelliferone from its ester with palmitic acid. However, the substrate is not specific for LAL, and the method requires two assays performed in parallel, the first in the presence of a LAL-specific covalent inactivator Lalistat-2. LAL activity is calculated from the difference in these 2 assays.
# A concentration of P-PMHC in the mixture of 3 mmol/L was settled on based on a combination of high LAL activity and minimal background. The original assay described by Hamilton et al. (Clin Chim Acta 2012; 413:1207-10) used 40 μL of an aqueous extract of a 3-mm DBS added to 160 μL of assay mixture. To keep the solvent volumes for the liquid-liquid extraction to a minimum, thus avoiding long times for solvent removal, 10 μL of an aqueous extract of a 3-mm DBS punch was added to 30 μL of assay mixture.
# [3] = biological target: T1, lysosomal acid lipase (LAL); assay: Testing potential LAL substrates with DBS; format: biochemical
# Description: Compound 8. Assay cocktail contained 0.69 mM Compound 8, 10 mM internal standard (analog of the product containing an n-hexanoyl amide tail instead of the n-pentanoyl amide tail) in 0.15 M sodium acetate, pH 4.02, containing 0.1% Triton X-100. Assay cocktail (30 mL) was added to a 3 mm DBS punch from a normal adult and 10 mL of 30 mM aqueous Lalistat-2 or H2O was added, and the mixture was incubated at 37° C. for 16 hr in an Eppendorf tube with orbital shaking at 250 rpm. The assay was quenched by addition of 120 mL of acetonitrile. The sample was centrifuged for 5 min at 3000×g, and 120 mL of supernatant was transferred to an autosampler plate. Water (60 mL) was added to the well, and 10 mL was injected for UPLC-MS/MS. Compound 8 product was analyzed by UPLC-MS/MS using the authentic product as a standard to establish UPLC and MS/MS conditions.
# Compound 9. Assay cocktail contained 0.3 mM Compound 9 (from a 10 mM DMSO stock) in a 14:1 solution of 0.15 M sodium acetate pH 4.0 1% Triton-X-100 and 0.5% m/v cardiolipin in methanol. […] Compound 9 product was analyzed by UPLC-MS/MS using the authentic product as a standard to establish UPLC and MS/MS conditions.
# Compounds 10-13. […] Samples were immediately read on a plate-reader fluorometer with an excitation wavelength of 355 nm and emission wavelength of 460 nm. […]
# [4] = biological target: T1, lysosomal acid lipase (LAL); assay: Testing the library of palmitoyl-4MU analogs as LAL substrates with DBS, with and without Lalistat-2, UPLC-MS/MS; format: biochemical; settings: for overall ranking in the library (activity and LAL specificity): library of 25 compounds
# Description: The library of palmitoyl-4MU analogs was tested as LAL substrates as follows. Assay cocktail was a solution of 10:1 buffer to substrate stock, each warmed to 37° C. The substrate stock contained 3.7 mM substrate and 0.5% cardiolipin in ethanol. The buffer contained 0.15 M sodium acetate, pH 4.0, and 2.5 mM sodium taurodeoxycholate. Rehydrated blood mixture (40 mL) was combined with 10 mL of H2O or 30 mM Lalistat-2 in an Eppendorf 1.5 mL polypropylene tube and pre-incubated for 15 min at 37° C. with orbital shaking at 250 rpm. Assay cocktail (100 or 150 mL) was added and samples were incubated for 3 hr at 37° C. with orbital shaking at 250 rpm. Assay was quenched by first flash freezing to −80° C. followed by subsequent addition of 400 mL of ethyl acetate and thawing. Samples were then vortexed and centrifuged at 2700×g for 5 min. Top ethyl acetate layer (200 mL) was transferred to an autosampler plate and blown dry under nitrogen gas then resuspended in 1:1 H2O:methanol solution, and […] per well injected for analysis by UPLC-MS/MS. The LC-MS/MS data was converted into mmole of product by using an external standard of 2.5 nmole (the individual corresponding coumarins) spiked into 40 mL rehydrated blood in a 1.5 mL Eppendorf polypropylene tube incubated separately from the assay cocktail, which were quenched immediately following incubation. Additional controls included a Lalistat-2 inhibited rehydrated DBS solution incubated separately from the assay cocktail then combined and immediately quenched as a blank. Unique duplicate spiked controls and blank controls were used for each coumarin analog.
molecule,measurement,setting,value
"O=C(Oc1nsnc1N1CCCCC1)N1CCCCC1 [Lalistat-2, reference compound]",inhibition of the activity toward P-PMHC,[1]; DBS extracts from two healthy persons preincubated with 10 μmol/L Lalistat-2,98%
same,inhibition of the activity toward P-PMHC,[1]; DBS extracts preincubated with 100 μmol/L Lalistat-2,99%
same,total lipase activity blocked,"[2]; same DBS extract, substrate palmitoyl-4MU, 10 μmol/L Lalistat-2",78%
CCCCCCCCCCCCCCCC(=O)Oc1ccc2c(C)cc(=O)oc2c1 [palmitoyl-4MU],specific activity for the LAL component,"[2]; 3-mm punch from an identical DBS, previous fluorometric assay with and without Lalistat-2",466 µmol/h/L
same,fold lower than the activity measured with the UPLC-MS/MS assay,"[2]; 466 versus 874 μmol/h/L, identical DBS",1.9 fold
same,fraction of the substrate hydrolyzed by esterases/lipases in DBS other than LAL,[2]; DBS,about one third
same,detectable LAL activity when tested with DBS,[3],displayed measurable LAL activity
"CCCCCCCCCCCCCCCC(=O)Oc1ccc2c(CCC)cc(=O)oc2c1C [Compound 1, 4-propyl-8-methyl-7-palmitoyloxycoumarin]",Activity without Lalistat-2,"[1]; LAL activity toward substrate P-PMHC, tandem mass spectrometry, DBS of Adult 1 (r9) / Adult 2 (r10), triplicate, blank corrected",519 µmol/h/L and 539 µmol/h/L and 473 µmol/h/L and 554 µmol/h/L and 582 µmol/h/L
same,specific activity,"[1]; final assay conditions, 3-mm punch of a DBS from a healthy adult, UPLC-MS/MS",874 µmol/h/L
same,specificity of the substrate for LAL in DBS,"[1]; from Lalistat-2 inhibition and LAL-deficient patients, listed as P-PMHC",highly specific for LAL in DBS
same,LAL activity in DBS of LAL-deficient patients,"[1]; six LAL-deficient patients, UPLC-MS/MS, no Lalistat-2",close to zero
same,substrate activity with DBS as the source of LAL compared to palmitoyl-4MU,"[4]; 3.7 mM substrate stock, 3 hr 37° C.",more active than palmitoyl-4MU
same,overall ranking in the library (activity and LAL specificity),[4],highest combination of total lipase activity and LAL-specificity
same,overall ranking in the library (activity and LAL specificity),[4]; listed as P-PMHC,best combination of high specific activity on LAL and high specificity for LAL
4-propyl-8-methyl-7-palmitoyloxycoumarin [Compound 1],detectable LAL activity when tested with DBS,[3],None of these compounds displayed detectable LAL activity
